Experimental data taken from US8435992B2, “Multiple myeloma treatments” (Pharma Mar S.A., priority 2008, dated 2013).

Columns and labels:
MM1S = assay: MTT viability assay, MM cell line panel; type: cell-based, human
Protocol: (§1) Antitumor activity of PM00104 in MM was evaluated by using a cell line panel comprising the following 9 MM cell lines: MM1S, MM1R, MM144, RPMI8226, RPMI-LR5, U266, U266-LR7, OPM-1, and OPM-2. These cell lines were grown in RPMI 1640 medium with L-glutamine supplemented with antibiotics (penicillin at 100 U/mL, streptomycin at 100 μg/mL) and 10% fetal bovine serum (FBS) at 37° C. in a humidified atmosphere in the presence of 5% CO2-95% air.
(§2) Cell lines were treated with increasing concentrations of the PM00104 (0.1-50 nM) for 24, 48 and 72 hours, and viability was analyzed by using 3-(4,5-dimethylthiazol-2-yl)-2,5-diphenyltetrazolium bromide (MTT) colorimetric assay. Briefly, MM cell lines were seeded at a density of 50,000 cells/200 […] medium per well in 48-well plates, and treated with a determined drug dose and time. Two hours before the end of the treatment, a MTT solution (5 mg/mL) in PBS) was added and the tetrazolium salt was reduced by metabolically active cells to coloured formazan crystals. After solubilization of these crystals by overnight incubation with 10% SDS-HCl solution, absorbance was measured at 570 nm with correction at 630 nm. Results are presented as the mean±SD of quadruplicates of an experiment that was repeated at least twice.

MM144 = assay: MTT viability assay, MM cell line panel; type: cell-based
Protocol: as §1, §2

MM1R = assay: MTT viability assay, MM cell line panel; type: cell-based
Protocol: as §1, §2

OPM-1 = assay: MTT viability assay, MM cell line panel; type: cell-based; conditions: Homo sapiens; OPM-1, MTT, 48 hours
Protocol: as §1, §2

OPM-2 = assay: MTT viability assay, MM cell line panel; type: cell-based; conditions: Homo sapiens; OPM-2, MTT, 48 hours
Protocol: as §1, §2

RPMI-LR5 = assay: MTT viability assay, MM cell line panel; type: cell-based; conditions: RPMI-LR5 (melphalan resistant), 48 hours
Protocol: as §1, §2

RPMI8226 = assay: MTT viability assay, MM cell line panel; type: cell-based; conditions: Homo sapiens, RPMI-8226, 48 hours
Protocol: as §1, §2

U266-LR7 = assay: MTT viability assay, MM cell line panel; type: cell-based; conditions: U266-LR7 (melphalan resistant), 48 hours
Protocol: as §1, §2

U266 = assay: MTT viability assay, MM cell line panel; type: cell-based; conditions: Homo sapiens, U-266, 48 hours
Protocol: as §1, §2

[1] = tested on: myelomatous plasma cells from bone marrow samples of MM patients; assay: Ex vivo apoptosis (Annexin V) in bone marrow cells from MM patients; type: cell-based, human; conditions: 1-50 nM, 18 hours
Protocol: FIG. 2. Freshly isolated bone marrow cells obtained from six MM patients were treated ex vivo with PM00104 (1-50 nM) for 18 hours. After the incubation period, cells were stained with the combination of Annexin V-FITC, and three monoclonal antibodies against plasma cell surface antigens (CD38, CD56 and CD45) which allow the analysis of the induction of apoptosis in the myelomatous population. Results are given as the percentage of Annexin V positive cells related to the percentage of viable cells in the untreated sample.
Additionally, the effect of PM00104 was further investigated ex vivo in cells isolated from bone marrow (BM) samples obtained from six patients with MM. Samples were lysed with ammonium chloride in order to remove red blood cells, and white cells were maintained in RPMI-1640 containing antibiotics (penicillin 100 U/ml, streptomycin 100 μg/ml) and 20% FBS. […] A total of 50,000 cells were acquired on a FACScalibur flow cytometer (BD Biosciences) and analyzed with the “Paint-a-Gate” program. Apoptosis was analyzed based on the Annexin-V positivity in the different populations: tumour PCs as well as in normal residual lymphocytes and granulo-monocytes. The percentage of Annexin V positive cells after treatment with PM00104 was calculated over the Annexin V negative cells (viable cells) in the control samples (without treatment).

MM1S cells [2] = assay: BrdU uptake of MM1S cells with IL-6, IGF-I or co-cultured BMSCs; type: cell-based, human; conditions: 48 hours
Protocol: (§3) FIG. 3. PM00104 overcomes the protective effects of IL-6, IGF-I, and adherence to patient BMSCs. MM1S cells were treated for 48 hours with indicated concentrations of PM00104 in the presence or absence of IL-6 (FIG. 3A), IGF-I (FIG. 3B), or BMSCs derived from a MM patient (FIG. 3C). DNA synthesis was determined by measuring BrdU incorporation during the last 8 hours of 48-hour cultures. Additionally, BMSCs were cultured with different doses of PM00104 for 48 hours and the cytotoxicity was analyzed by MTT assay (FIG. 3D). Data is presented as the mean±SD of quadruplicates.
The presence of the BM microenvironment confers protection to MM through their adhesion or through the production of several cytokines such as IL-6 or IGF-I. In order to test whether PM00104 was able to inhibit this protective effect of the BM microenvironment, MM1S cells were incubated with IL-6 (1 nM) or IGF-I (10 nM), or co-cultured with BM stromal cells (BMSCs) for 48 hours, and then treated with increasing concentrations of PM00104. BMSCs were plated in 96-well culture dishes (50,000 cells/well) and allowed to reach confluence during 48 hours. Then, 30,000 myeloma cells were plated in RPMI 1640 containing 10% serum. Proliferation of MM cells was then assessed by Bromodeoxyuridine (BrdU) uptake (Maiso P et al. Br. J. Haematol. 2008, 141, 470-482). BrdU was added for the last 8 hours, and BrdU uptake was measured using a commercial kit (Roche Biochemicals), following the manufacturer's instructions.

[3] = tested on: BMSCs derived from a MM patient; assay: MTT cytotoxicity on BMSCs; type: cell-based, human; conditions: 48 hours
Protocol: as §3

MM1S plasmocytomas = assay: Human plasmocytoma xenograft in CB17-SCID mice (MM1S); type: in vivo; conditions: for tumor volume (mean±SD): after 15 days of treatment
Protocol: (§4) The in vivo efficacy of PM00104 was studied in a model of human plasmocytoma xenografted in CB17-SCID mice. These experiments were performed using the very sensitive cell line MM1S and the less sensitive one OPM-1. Two cohorts of thirty mice were subcutaneously injected with each cell line and mice were randomized into three groups receiving vehicle alone, 0.8 mg/kg of PM00104, or 1 mg/Kg PM00104 intravenously (iv) once weekly for three doses.
(§5) CB17-SCID mice (The Jackson Laboratory, Bar Harbor, Me., USA) were subcutaneously inoculated into the right flank with 3×10^6 MM1S or OPM1 cells in 100 μL of RPMI-1640 medium and 100 μL of Matrigel (Becton Dickinson). When tumours became palpable, mice received PM00104 or vehicle alone. Treatment with PM00104 was given iv, at doses of 0.8 mg/kg and 1 mg/kg once weekly for three doses. The control group received the vehicle alone (sterile water for injection plus saline).
(§6) Caliper measurements of the tumour diameters were performed every day, and the tumour volume was estimated as the volume of an ellipse using the following formula: V=4/3π×(a/2)×(b/2)^2, where “a” and “b” correspond to the longest and shortest diameter, respectively. Animals were euthanized when their tumours reached 2 cm. Differences in tumour volumes between treated and control groups were evaluated using 1-way analysis of variance and Bonferroni post hoc tests. Survival was estimated from the day of initiation of treatment, and statistical differences were assessed by Kaplan-Meier curves with the Log Rank test. Statistical analyses were performed with the SPSS-15.0 software (SPSS Inc. Chicago, Ill., USA) and statistical significance was defined as p<0.05.

OPM-1 plasmocytomas = assay: Human plasmocytoma xenograft in CB17-SCID mice (OPM-1); type: in vivo; conditions: for tumor volume (mean±SD): after 14 days of treatment
Protocol: as §4, §5, §6

[4] = Systemic toxicity and body weight in xenografted mice; type: in vivo
Protocol: as §4, §5

MM1S cells [5] = assay: Combination with antimyeloma agents, MTT assay, Chou Talalay combination index; type: cell-based, human; conditions: 72 hours; for combination index (CI): Chou and Talalay method
Protocol: FIG. 5. PM00104 potentiates the antimyeloma action of conventional and novel antimyeloma agents. MM1S cells were treated with suboptimal concentrations of PM00104 (Zalypsis, Z) and other antimyeloma agents such as Dexamethasone (Dex), melphalan (Mel), doxorubicin (Dox), bortezomib (Bort) and lenalidomide (Len) in double (FIG. 5A) and triple combinations (FIG. 5B). Cell viability was analyzed by MTT assay.
MM1S cells were treated for 72 hours, as described in example 1, with combinations of suboptimal doses of PM00104 and other antimyeloma agents such as dexamethasone, melphalan, doxorubicin, bortezomib and lenalidomide, in double and triple combinations. Cell viability was analyzed by MTT assay as described in example 1. The potency of the combination was quantified with the Calcusyn software (Biosoft, Ferguson, Mo.), which is based in the Chou Talalay method, that calculates a combination index (CI) with the following interpretation: CI>1: antagonistic effect, CI=1: additivity and CI<1 synergistic effect.

[6] = 0.8 mg/kg iv once weekly for three doses
[7] = 1 mg/kg iv once weekly for three doses
[8] = OPM-1, 0.8 mg/kg iv once weekly for three doses
[9] = OPM-1, 1 mg/kg iv once weekly for three doses

COc1c(C)cc2c(c1O)[C@@H]1[C@@H]3Cc4c(OC(C)=O)c(C)c5c(c4[C@H](CNC(=O)/C=C/c4cccc(C(F)(F)F)c4)N3[C@@H](O)[C@H](C2)N1C)OCO5 [PM00104]
IC50 at 48 hours (MM1S): picomolar concentrations | IC50 at 48 hours (MM144): picomolar concentrations | IC50 at 48 hours (MM1R): picomolar concentrations | IC50 (OPM-1): 1 to 2 nM | IC50 (OPM-2): 1 to 2 nM | IC50 (RPMI-LR5): 1 to 2 nM | IC50 (RPMI8226): 1 to 2 nM | IC50 (U266-LR7): 1 to 2 nM | IC50 (U266): 1 to 2 nM | sensitivity of patient samples (Annexin V positive cells) ([1]; four out of six samples (patients 1, 6, 3 and 5)): very sensitive to low concentrations | sensitivity of patient samples (Annexin V positive cells) ([1]; patient 4, secondary plasma cell leukemia): intermediate sensitivity | effect on protective effect due to adhesion of plasma cells to BMSCs (BrdU uptake) (MM1S cells [2]; MM1S co-cultured with BMSCs): largely inhibited | effect on proliferative advantage conferred by IGF-I (BrdU uptake) (MM1S cells [2]; MM1S, IGF-I 10 nM): completely abrogated | effect on proliferative advantage conferred by IL-6 (BrdU uptake) (MM1S cells [2]; MM1S, IL-6 1 nM): completely abrogated | cytotoxic effect on BMSCs [3]: very resistant | median±SE survival (MM1S plasmocytomas; [6]): 52 ± 4.8 days | tumor volume (mean±SD) (MM1S plasmocytomas; [6]): 420±242 mm^3 | median±SE survival (MM1S plasmocytomas; [7]): 59 ± 5.5 days | tumor volume (mean±SD) (MM1S plasmocytomas; [7]): 176±78 mm^3 | median±SE survival (OPM-1 plasmocytomas; [8]): 21 ± 0.8 days | tumor volume (mean±SD) (OPM-1 plasmocytomas; [8]): 1879±731 mm^3 | median±SE survival (OPM-1 plasmocytomas; [9]): 23 ± 1.1 days | tumor volume (mean±SD) (OPM-1 plasmocytomas; [9]): 1042±596 mm^3 | systemic toxicity ([4]; 0.8 and 1 mg/kg iv once weekly for three doses): no significant systemic toxicity | weight loss (of body weight as compared to the controls) ([4]; highest of PM00104 doses): around 10% | effect of combination on cell viability (MM1S cells [5]; with bortezomib): promising additive/synergistic results | efficacy of triple combination vs respective double combinations (MM1S cells [5]; with dexamethasone + doxorubicin): significantly improved the efficacy | efficacy of triple combination vs respective double combinations (MM1S cells [5]; with dexamethasone + lenalidomide): significantly improved the efficacy | efficacy of triple combination vs respective double combinations (MM1S cells [5]; with dexamethasone + melphalan): significantly improved the efficacy | combination index (CI) (MM1S cells [5]; with dexamethasone): 0.78 | combination index (CI) (MM1S cells [5]; with doxorubicin): 0.64 | combination index (CI) (MM1S cells [5]; with lenalidomide): 0.55 | combination index (CI) (MM1S cells [5]; with melphalan): 0.48
